Measured values taken from patent US10426815B2, “Prevention and treatment of itch with an MRGPR antagonist” (THE GENERAL HOSPITAL CORPORATION, priority 2015, dated 2019).
“Also recorded” adds a separate entry of the source.

Assays:
[1] = target: T1, MrgA3 (mouse MrgprA3) (Mus musculus, UniProt Q91WW3); experiment: Calcium imaging of cells transfected with the GPCR (Table 1); assay type: cell-based; conditions: FIG. 7c: CQ 100 μM, QWF 100 μM
T1 construct: expressed in transfected cells; host or cells: HeLa cells, pcDNA3.1(-)
T1 sequence (Q91WW3 1-302): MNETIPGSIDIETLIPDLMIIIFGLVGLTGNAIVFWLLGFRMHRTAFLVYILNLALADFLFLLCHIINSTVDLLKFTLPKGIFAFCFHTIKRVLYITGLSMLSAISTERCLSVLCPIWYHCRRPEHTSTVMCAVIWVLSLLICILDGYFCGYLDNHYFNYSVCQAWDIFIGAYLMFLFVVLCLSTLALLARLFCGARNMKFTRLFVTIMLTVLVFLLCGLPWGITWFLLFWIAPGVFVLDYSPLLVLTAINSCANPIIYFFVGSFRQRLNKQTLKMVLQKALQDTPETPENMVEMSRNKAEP
Description: Human NK1 cDNA was obtained from LIFE Technologies, PCR cloned with Xho I-Hind III ends and cloned into pcDNA3.1(−). Mouse NK2 and NK3 expression-ready vectors were obtained from […] (Piscataway, N.J.). All other Mrgprs (human MRGPRX1, human MRGPRX2, human MRGPRX3, human MRGPRX4, mouse MrgprA2a, mouse MrgprA2b, mouse MrgprA3, mouse MrgprA4, mouse MrgprA9, mouse MrgprA10, mouse MrgprB4 and mouse MrgprB5) were cloned by PCR from genomic DNAs and inserted into pcDNA3.1 (−).
10 μg of expression vector (human MRGPRX2, mouse MrgprA1 or NK1) and 10 μl of LIPOFECTAMINE 2000 transfection reagent were diluted into 0.5 ml of DMEM and separately left at room temperature (RT) for 5 min. They were then mixed and incubated at RT for 20 minutes prior to being added to HeLa cells. HeLa cells were grown to confluence, trypsinized and 1×10^6 cells were pelleted in a 15 ml tube by centrifugation at 1000 rpm for 5 minutes. The DMEM-LIPOFECTAMINE 2000-DNA mixture (1 ml) was then added to the cell pellet, suspended and incubated at RT for 5 minutes. 2 ml of complete DMEM with 10% FBS without antibiotics were added to the tube, mixed by inverting the tube, plated into a 96-well glass bottom plate at 50,000 cells/well, and placed in a 37° C. CO2 incubator for 3 hours. HeLa cells transfected with salmon sperm DNA were plated as a control. The medium was changed after 3 hours and left in the incubator. 24 hours after transfection, the medium in the wells was removed and 100 μl of complete DMEM containing 2 μM of FURA-2 were added to each well and left at room temperature in the dark for 1 hr.
Calcium imaging was performed immediately after loading cells with Fura-2, using a ZEISS Axiovert 200M microscope platform equipped with a flipping filter wheel for ratiometric imaging. Axiovision software, version 4.6 was used for calcium image analysis of the cells excited at 340 nm and 380 nm. Agonists were added at 15 seconds after the start of the excitation procedure. Antagonists were added five minutes before imaging with the agonists. Images were taken every 5 seconds, including at zero time, during a 90 second period or longer if required. The software later analyzed all images taken during each excitation period. Ratiometric changes were measured in 10-20 cells in each individual experiment. An average of the fluorescence of the cells in each image was calculated and plotted against time in seconds.

[2] = system: WT DRGs; experiment: DRG culture and calcium imaging, WT mice; assay type: cell-based, mouse
Description: Cervical to lumbar dorsal root ganglia (DRG) from C57/B6 or NK1 mice (1 month old) were dissected and maintained in DMEM (GIBCO, Langley, Okla., USA), containing […] L-glutamine (FISHER […], Pittsburgh, Pa., USA), 10% heat inactivated fetal bovine serum (GIBCO, Langley, Okla., USA), 5000 U/ml penicillin and 5000 μg/ml streptomycin (FISHER […], Pittsburgh, Pa., USA). Enzymatic digestion was carried out with 1 mg collagenase in 1 ml dispase (ROCHE Applied Sciences, IN, USA), at 37° C. for 70 min. The collagenase/dispase solution was removed, and DRGs were washed and suspended in DMEM containing 125 U DNAse (SIGMA, St Louis, USA) within which the ganglia were mechanically triturated using fire-polished glass pipettes. […] Cells were evaluated using a NIKON Eclipse Ti inverted microscope equipped with an Exi Aqua CCD camera (QIMAGING, British Columbia, Canada). Ca^2+ flux fluorescence was measured as an […] ratio at 340 nm and 380 nm (F340/380) (Lambda DG4, Sutter Instruments, Novato, Calif., US). The 340/380 ratiometric images were analyzed using NIKON Elements AR Software (NIKON, Melville, N.Y. USA). […]

## Boc-Gln-D-Trp(Formyl)-Phe benzyl ester trifluoroacetate [QWF]
[1]
  inhibition of MrgprA3 activation by chloroquine (CQ): does not affect; also recorded: does not inhibit
[2]
  decrease of the response of WT DRGs to compound 48/80: significantly decreases
